Assays:
PCSK9 protein = target: T1, PCSK9 protein (Homo sapiens, UniProt Q8NBP7); test: Binding ability to PCSK9 protein (HTRF); conditions: PCSK9-His, Alexa Fluor 647 probe compound
T1 construct: purchased Sino biology (Sino Biological) 29698-H08H
Experimental: 1. Experimental objective: To detect the action of compounds to bind PCSK9 protein by an HTRF method.
3. Experimental data processing method: Four-parameter log(inhibitor) vs. response—Variable slope (four parameters) in XLit was used to perform non-linear fitting of the compound concentration and the corresponding inhibition rate, and IC50 was calculated.

[1] = test system: PCSK9 secreted by HepG2 cells; test: Effect on the concentration of PCSK9 secreted by HepG2 cells (ELISA); format: cell-based; conditions: Homo sapiens, 48 hours, PCSK9 in culture medium by ELISA
In short: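 HepG2 cells treated with compound for 48 h at 37° C., 5% CO2. Secreted PCSK9 in medium quantified by sandwich ELISA (HRP detection, OD 450 nm) against a 0–10 ng/mL standard curve. Inhibition relative to control; IC50 fitted from concentration–inhibition data.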

T1 sequence (Q8NBP7 153-692): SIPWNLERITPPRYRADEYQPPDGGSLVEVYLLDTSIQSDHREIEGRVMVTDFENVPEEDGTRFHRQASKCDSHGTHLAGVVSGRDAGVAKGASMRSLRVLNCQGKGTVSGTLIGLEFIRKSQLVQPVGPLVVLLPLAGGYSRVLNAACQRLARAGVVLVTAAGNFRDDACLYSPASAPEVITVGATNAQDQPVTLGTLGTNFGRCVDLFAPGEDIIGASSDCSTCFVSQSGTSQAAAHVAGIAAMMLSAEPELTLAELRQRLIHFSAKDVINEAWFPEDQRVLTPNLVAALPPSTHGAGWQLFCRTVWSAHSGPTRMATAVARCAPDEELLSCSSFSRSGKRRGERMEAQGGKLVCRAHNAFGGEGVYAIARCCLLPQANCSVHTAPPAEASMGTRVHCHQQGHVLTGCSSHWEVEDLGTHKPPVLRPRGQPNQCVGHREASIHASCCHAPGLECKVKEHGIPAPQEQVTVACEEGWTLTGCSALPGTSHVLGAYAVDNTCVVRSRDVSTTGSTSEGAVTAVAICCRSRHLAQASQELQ

Compound | IC50 (PCSK9 protein) | IC50 [1]
O=c1nc(O)ccn1-c1ccc(N[C@H]2CC[C@H](Nc3nc4cc(C(F)(F)F)ccn4n3)C2)nc1 [Example 78, 4-hydroxy-1-(6-(((1S,3S)-3-((7-(trifluoromethyl)-[1,2,4]triazolo[1,5-a]pyridin-2-yl)amino)cyclopentyl)amino)pyridin-3-yl)pyrimidin-2(1H)-one] | 10.1 nM | 33100 nM
O=C1c2ncccc2CN1c1cnc(N[C@H]2CC[C@H](Nc3nc4cc(OC(F)F)ccn4n3)C2)c(F)c1 [Example 151] | 8.1 nM | 12700 nM
O=c1nc(O)ccn1-c1cnc(N[C@H]2CC[C@H](Nc3nc4cc(C(F)(F)F)ccn4n3)C2)c(F)c1 [Example 183] | 8.8 nM | 4800 nM

Source: patent US12612403B2, “Nitrogen-containing heterocyclic derivative inhibitor, and preparation method therefor and use thereof” (SHANGHAI HANSOH BIOMEDICAL CO., LTD., priority 2024, dated 2026)
